Test results as given in US10717746B2, “Chemical compounds” (ASTRAZENECA AB, priority 2015, dated 2020).

Legend:
[1] = test system: phosphorylation of RNA Polymerase II (RNAPII) at the Ser2 site in MCF7 cells; experiment: MCF7 pSer2 RNAPII MOA assay (immunofluorescence); format: cell-based; settings: Homo sapiens, MCF7, 6 h, 6-hr treatment, read-out: p-Ser 2 RNAPII (IC50)
Method: MCF7 pSer2 RNAPII MOA Assay
This is an immunofluorescence assay to determine the effect of CDK9 inhibitors on phosphorylation of RNA Polymerase II (RNAPII) at the Ser2 site in the breast cancer cell line, MCF7. On day one, 2500 MCF7 cells/well were seeded in 30 μl of growth media (RPMI+10% FBS+1% L-Glu+P/S) in 384-well black-wall clear-bottom plates, incubate plates overnight at 37° C. incubator. On the second day, the cells were treated with CDK9 inhibitors (7 point dose response ranging from 3 μM to 0.004 μM) using an ECHO liquid handler (Labcyte). After 6-hr treatment at 37° C. incubator, the cells were fixed with 30 µl/well 7.4% paraformaldehyde for 15 min at room temperature; the cells were washed twice with PBS, then permeabilized with 0.3% Triton X/PBS for 5 min at room temperature. After washing cells with PBS, the cells were incubated with 1:2000 diluted Anti-Ser2 Phospho-RNA pol II antibody (Covance MMS-129R) in 3% FBS/0.1% PBST overnight at 4° C. On the next day, the cells were washed twice with 0.1% PBST, then incubated with 1:1000 diluted Alexa Fluor 488 Goat-anti-mouse antibody (Life Technologies A-11001) and 1:4000 diluted DAPI at room temperature in dark. After one hour incubation, the cells were washed twice with 0.1% PBST, and once with PBS. The plates where sealed and read on an Acumen eX3 microplate cytometer (TTP Labtech) to assess phosphorylation level in each well.

[2] = test system: MV411 cells; experiment: MV411 caspase activity assay (Caspase-Glo 3/7); format: cell-based; settings: Homo sapiens, MV4-11, 6 h, 6-hr treatment, caspase 3/7 induction
Method: MV411 Caspase Activity Assay
This is a cell assay to measure the induction of caspase activity in the acute myeloid leukemia cell line, MV411 after 6-hr treatment with CDK9 inhibitors. On the first day, 3000 MV411 cells/well were seeded in 50 μl of growth media (IMDM+10% FBS+2% L-Glu+P/S) in 384-well white plates, incubate plates in 37° C. incubator overnight. […] After 6 hour incubation in 37° C. incubator, 25 μl of Caspase-Glo 3/7 reagent (Promega) per well was added into each well, and plates were incubated at room temperature for 30 min in dark. The plates were read on an Infinite M200 microplate reader (Tecan) with a 100 ms integration time.

[3] = target: T1, CDK9/CycT1 (Homo sapiens (Human), UniProt P50750); experiment: CDK9 kinase assay, high ATP concentration (5 mM ATP); format: biochemical; settings: 1.5 nM CDK9, read-out: CDK9 High ATP conc. (IC50)
T1 sequence (P50750 whole entry): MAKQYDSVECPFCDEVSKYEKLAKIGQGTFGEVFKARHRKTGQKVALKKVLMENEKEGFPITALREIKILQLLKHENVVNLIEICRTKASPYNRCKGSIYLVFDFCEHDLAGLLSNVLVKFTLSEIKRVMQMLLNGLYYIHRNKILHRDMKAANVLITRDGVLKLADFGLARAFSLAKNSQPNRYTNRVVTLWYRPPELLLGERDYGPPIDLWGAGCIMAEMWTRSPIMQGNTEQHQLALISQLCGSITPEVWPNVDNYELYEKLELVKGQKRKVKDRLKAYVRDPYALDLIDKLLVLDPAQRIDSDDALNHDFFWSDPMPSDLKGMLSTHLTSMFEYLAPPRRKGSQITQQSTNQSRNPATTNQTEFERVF
T1 sequence (O60563 whole entry partner): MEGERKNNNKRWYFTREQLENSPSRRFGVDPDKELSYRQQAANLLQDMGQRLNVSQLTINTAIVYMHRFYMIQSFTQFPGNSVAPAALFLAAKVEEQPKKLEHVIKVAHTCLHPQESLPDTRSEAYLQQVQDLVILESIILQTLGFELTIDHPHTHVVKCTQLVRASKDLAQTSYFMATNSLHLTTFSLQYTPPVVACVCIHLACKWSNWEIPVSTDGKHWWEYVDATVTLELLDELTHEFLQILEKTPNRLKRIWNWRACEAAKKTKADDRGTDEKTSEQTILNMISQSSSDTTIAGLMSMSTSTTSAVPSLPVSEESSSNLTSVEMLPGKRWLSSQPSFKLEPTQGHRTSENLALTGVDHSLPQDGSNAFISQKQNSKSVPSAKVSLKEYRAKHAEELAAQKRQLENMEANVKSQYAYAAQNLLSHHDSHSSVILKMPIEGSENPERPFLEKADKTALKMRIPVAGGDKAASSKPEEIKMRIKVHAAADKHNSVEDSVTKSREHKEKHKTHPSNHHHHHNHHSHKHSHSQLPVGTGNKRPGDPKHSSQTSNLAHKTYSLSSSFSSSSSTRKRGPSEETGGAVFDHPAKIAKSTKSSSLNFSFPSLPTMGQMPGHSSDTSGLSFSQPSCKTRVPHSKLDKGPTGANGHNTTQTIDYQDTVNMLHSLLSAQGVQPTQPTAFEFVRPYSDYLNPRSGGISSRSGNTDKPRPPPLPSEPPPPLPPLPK
Method: (§1) Activity of CDK9 was determined in-vitro using a mobility shift assay on a Caliper LC3000 reader (Caliper/PerkinElmer), which measures fluorescence of a phosphorylated and unphosphorylated fluorescent peptide substrate and calculates a ratiometric value to determine percent turnover. Phosphorylation of the peptide in the presence and absence of the compound of interest was determined. Enzyme/substrate/adenosine triphosphate (ATP) mix (3 nM CDK9/CycT1, 6 μM ATP, 1.5 μM CDK9 peptide substrate (FITC-X-GSRTPMY-NH2 (X: epsilon aminocaproic acid)), 50 mM HEPES (pH7.2), 1 mM dithiothreitol, 0.01% tween 20, 50 μg/mL bovine serum albumin, (final assay concentration)) (5 μl) was preincubated with 2 μl of compound for 15 minutes at 25° C. Reactions were initiated with 5 μl of 24 mM MgCl2 (10 mM final assay concentration) in buffer (50 mM HEPES (pH7.2), 1 mM dithiothreitol, 0.01% tween 20, 50 μg/mL bovine serum albumin, (final assay concentration) and incubated at 25° C. for 90 minutes and reactions were stopped by addition of 5 μl of Stop mix consisting of 65 mM HEPES (pH7.2), 35.5 mM EDTA, 0.227% Coatin Reagent 3 (Caliper/PerkinElmer), and 0.003% Tween. Phosphorylated and unphosphorylated substrate was detected by a Caliper LC3000 reader (Caliper/PerkinElmer) in the presence of separation buffer consisting of 100 mM HEPES (pH7.2), 15.8 mM EDTA, 0.1% Coatin Reagent 3 (Caliper/PerkinElmer), 0.015% Brij-35, 5% DMSO, and 5.6 mM MgCl2. CDK9 enzyme was acquired from Carna Biosciences (Catalogue number 04-110), the CDK9 peptide substrate was acquired from Intonation (Boston, Mass.; Custom-made).
High ATP assays were run the same way with the following modifications: the final assay concentration of CDK9 was 1.5 nM and the final assay concentration of ATP was 5 mM.

[4] = target: T1, CDK9/CycT1; experiment: CDK9 kinase assay, ATP concentration at Km (mobility shift, Caliper LC3000); format: biochemical; settings: 6 μM ATP, 3 nM CDK9/CycT1; read-out: CDK9 ATP conc. at Km (IC50)
Method: as §1

C[C@H](O)C(=O)N[C@@H]1CCC[C@H](C(=O)Nc2cc(-c3cnn4c3CC(C)(C)C4)c(Cl)cn2)C1 [Example 20, (1S,3R)—N-(5-chloro-4-(5,5-dimethyl-5,6-dihydro-4H-pyrrolo[1,2-b]pyrazol-3-yl)pyridin-2-yl)-3-((S)-2-hydroxypropanamido)cyclohexanecarboxamide]
IC50 [1]: 10 nM | IC50 [2]: 14 nM | IC50 [3]: < 3 nM | IC50 [4]: < 3 nM

CC1(C)Cc2c(-c3cc(NC(=O)[C@H]4CCC[C@@H](NC(=O)C5(O)CC5)C4)ncc3Cl)cnn2C1 [Example 21, (1S,3R)—N-(5-chloro-4-(5,5-dimethyl-5,6-dihydro-4H-pyrrolo[1,2-b]pyrazol-3-yl)pyridin-2-yl)-3-(1-hydroxycyclopropanecarboxamido)cyclohexanecarboxamide]
IC50 [1]: < 7 nM | IC50 [2]: 13 nM | IC50 [3]: < 3 nM | IC50 [4]: < 3 nM

CC1(C)Cc2c(-c3cc(NC(=O)[C@H]4CCC[C@@H](NC(=O)[C@@H]5CCOC5)C4)ncc3Cl)cnn2C1 [Example 23, (R)—N-((1R,3S)-3-((5-chloro-4-(5,5-dimethyl-5,6-dihydro-4H-pyrrolo[1,2-b]pyrazol-3-yl)pyridin-2-yl)carbamoyl)cyclohexyl)tetrahydrofuran-3-carboxamide]
IC50 [1]: 6 nM | IC50 [2]: 12 nM | IC50 [3]: < 3 nM | IC50 [4]: < 3 nM

CC1(C)Cc2c(-c3cc(NC(=O)[C@H]4CCC[C@@H](NC(=O)[C@H]5CCOC5)C4)ncc3Cl)cnn2C1 [Example 24, (S)—N-((1R,3S)-3-((5-chloro-4-(5,5-dimethyl-5,6-dihydro-4H-pyrrolo[1,2-b]pyrazol-3-yl)pyridin-2-yl)carbamoyl)cyclohexyl)tetrahydrofuran-3-carboxamide]
IC50 [1]: 11 nM | IC50 [2]: 15 nM | IC50 [3]: 4 nM | IC50 [4]: < 3 nM

CC(=O)N[C@@H]1CCC[C@H](C(=O)Nc2cc(-c3cnn4c3CC(C)(C)C4)c(F)cn2)C1 [Example 25, (1S,3R)-3-acetamido-N-(4-(5,5-dimethyl-5,6-dihydro-4H-pyrrolo[1,2-b]pyrazol-3-yl)-5-fluoropyridin-2-yl)cyclohexanecarboxamide]
IC50 [1]: 25 nM | IC50 [2]: 29 nM | IC50 [3]: 4 nM | IC50 [4]: < 3 nM

CC1(C)Cc2c(-c3ccnc(NC(=O)[C@H]4C[C@@H](O)C4)c3)cnn2C1 [Example 26, cis-N-(4-(5,5-dimethyl-5,6-dihydro-4H-pyrrolo[1,2-b]pyrazol-3-yl)pyridin-2-yl)-3-hydroxycyclobutanecarboxamide]
IC50 [1]: 122 nM | IC50 [2]: 152 nM | IC50 [3]: 93 nM | IC50 [4]: < 3 nM

CC1(C)Cc2c(-c3cc(NC(=O)[C@H]4C[C@@H](O)C4)ncc3Cl)cnn2C1 [Example 27, cis-N-(5-chloro-4-(5,5-dimethyl-5,6-dihydro-4H-pyrrolo[1,2-b]pyrazol-3-yl)pyridin-2-yl)-3-hydroxycyclobutanecarboxamide]
IC50 [1]: 44 nM | IC50 [2]: 38 nM | IC50 [3]: 25 nM | IC50 [4]: < 3 nM

CC(=O)N[C@@H]1CCC[C@H](C(=O)Nc2cc(-c3cnn4c3CCCC4)ncn2)C1 [Example 28, (1S,3R)-3-acetamido-N-(6-(4,5,6,7-tetrahydropyrazolo[1,5-a]pyridin-3-yl)pyrimidin-4-yl)cyclohexanecarboxamide]
IC50 [1]: > 3000 nM | IC50 [2]: 6600 nM | IC50 [3]: 4710 nM | IC50 [4]: 36 nM

O=C(Nc1cc(-c2cnn3c2CCCC3)ncn1)[C@H]1C[C@H](O)C1 [Example 29, trans-3-hydroxy-N-(6-(4,5,6,7-tetrahydropyrazolo[1,5-a]pyridin-3-yl)pyrimidin-4-yl)cyclobutanecarboxamide]
IC50 [1]: > 2630 nM | IC50 [2]: 7220 nM | IC50 [3]: 7540 nM | IC50 [4]: 63 nM

CC(=O)N[C@@H]1CCC[C@H](C(=O)Nc2cc(-c3cnn4c3CC(C)(C)C4)ncn2)C1 [Example 30, (1S,3R)-3-acetamido-N-(6-(5,5-dimethyl-5,6-dihydro-4H-pyrrolo[1,2-b]pyrazol-3-yl)pyrimidin-4-yl)cyclohexanecarboxamide]
IC50 [1]: 1240 nM | IC50 [2]: 1050 nM | IC50 [3]: 606 nM | IC50 [4]: 7 nM

N#CCC(=O)N[C@@H]1CCC[C@H](C(=O)Nc2cc(-c3cnn4c3CCCC4)c(Cl)cn2)C1 [Example 31, (1S,3R)—N-(5-chloro-4-(4,5,6,7-tetrahydropyrazolo[1,5-a]pyridin-3-yl)pyridin-2-yl)-3-(2-cyanoacetamido)cyclohexanecarboxamide]
IC50 [1]: 36 nM | IC50 [2]: 90 nM | IC50 [3]: 12 nM | IC50 [4]: < 3 nM

CC(C)(C)OC(=O)N[C@@H]1CCC[C@H](C(=O)Nc2cc(-c3cnn4c3CCCC4)c(Cl)cn2)C1 [Example 31a, tert-butyl ((1R,3S)-3-((5-chloro-4-(4,5,6,7-tetrahydropyrazolo[1,5-a]pyridin-3-yl)pyridin-2-yl)carbamoyl)cyclohexyl)carbamate]
IC50 [1]: 170 nM | IC50 [2]: 177 nM | IC50 [3]: 16 nM | IC50 [4]: < 3 nM

O=C(Nc1cc(-c2cnn3c2CCCC3)c(Cl)cn1)[C@H]1CCC[C@@H](NC(=O)C2(O)CC2)C1 [Example 32, (1S,3R)—N-(5-chloro-4-(4,5,6,7-tetrahydropyrazolo[1,5-a]pyridin-3-yl)pyridin-2-yl)-3-(1-hydroxycyclopropanecarboxamido)cyclohexanecarboxamide]
IC50 [1]: 55 nM | IC50 [2]: 136 nM | IC50 [3]: 17 nM | IC50 [4]: < 3 nM

O=C(Nc1cc(-c2cnn3c2CCCC3)c(Cl)cn1)[C@H]1CCC[C@@H](NC(=O)[C@@H]2CCOC2)C1 [Example 33, (R)—N-((1R,3S)-3-((5-chloro-4-(4,5,6,7-tetrahydropyrazolo[1,5-a]pyridin-3-yl)pyridin-2-yl)carbamoyl)cyclohexyl)tetrahydrofuran-3-carboxamide]
IC50 [1]: 57 nM | IC50 [2]: 171 nM | IC50 [3]: 19 nM | IC50 [4]: < 3 nM

CC1(C(=O)N[C@@H]2CCC[C@H](C(=O)Nc3cc(-c4cnn5c4CCCC5)c(Cl)cn3)C2)COC1 [Example 34, N-((1R,3S)-3-((5-chloro-4-(4,5,6,7-tetrahydropyrazolo[1,5-a]pyridin-3-yl)pyridin-2-yl)carbamoyl)cyclohexyl)-3-methyloxetane-3-carboxamide]
IC50 [1]: 107 nM | IC50 [2]: 188 nM | IC50 [3]: 29 nM | IC50 [4]: < 3 nM

O=C(Nc1cc(-c2cnn3c2CCCC3)c(Cl)cn1)[C@H]1CCC[C@@H](NC(=O)[C@@H]2CCCO2)C1 [Example 35, (S)—N-((1R,3S)-3-((5-chloro-4-(4,5,6,7-tetrahydropyrazolo[1,5-a]pyridin-3-yl)pyridin-2-yl)carbamoyl)cyclohexyl)tetrahydrofuran-2-carboxamide]
IC50 [1]: 40 nM | IC50 [2]: 125 nM | IC50 [3]: 23 nM | IC50 [4]: < 3 nM
